Data from the NIST ThermoML archive (doi:10.1021/acs.jced.7b01049).
± gives the expanded uncertainty stated by the source.

Assay: xn = mol fraction of the nth substance listed
Conditions: for surface tension liquid-gas / mass density: discharge crucible method; for mass density / viscosity: 100 kPa, Liquid; for viscosity: discharge crucible

[Pb] [lead] + [Sb]
Conditions | mass density [kg/m3] | surface tension liquid-gas [mN/m] | viscosity [mPa·s]
573 K, x2 = 0.1675 | 10206 ± 610 | 437.1 ± 26 | 2.565 ± 0.17
623 K, x2 = 0.1675 | 10142 ± 610 | 433.7 ± 26 | 2.262 ± 0.15
673 K, x2 = 0.1675 | 10087 ± 600 | 429.9 ± 26 | 1.999 ± 0.13
673 K, x2 = 0.4 | 9263 ± 560 | 418.3 ± 25 | 1.873 ± 0.12
723 K, x2 = 0.1675 | 10019 ± 600 | 426.6 ± 26 | 1.836 ± 0.12
723 K, x2 = 0.4 | 9201 ± 550 | 414.6 ± 25 | 1.721 ± 0.11
773 K, x2 = 0.1675 | 9963 ± 600 | 422.8 ± 25 | 1.694 ± 0.11
773 K, x2 = 0.4 | 9143 ± 550 | 411.5 ± 25 | 1.573 ± 0.1
773 K, x2 = 0.6 | 8244 ± 500 | 400.5 ± 24 | 1.561 ± 0.1
823 K, x2 = 0.1675 | 9905 ± 590 | 419.1 ± 25 | 1.583 ± 0.1
823 K, x2 = 0.4 | 9095 ± 550 | 407.8 ± 24 | 1.475 ± 0.097
823 K, x2 = 0.6 | 8185 ± 490 | 397.1 ± 24 | 1.449 ± 0.095
873 K, x2 = 0.1675 | 9862 ± 590 | 415.6 ± 25 | 1.495 ± 0.098
873 K, x2 = 0.4 | 9042 ± 540 | 403.9 ± 24 | 1.358 ± 0.089
873 K, x2 = 0.6 | 8138 ± 490 | 393.9 ± 24 | 1.333 ± 0.088
873 K, x2 = 0.9 | 6977 ± 420 | 376.2 ± 23 | 1.539 ± 0.1
923 K, x2 = 0.1675 | 9814 ± 590 | 411.9 ± 25 | 1.425 ± 0.093
923 K, x2 = 0.4 | 8991 ± 540 | 400.2 ± 24 | 1.266 ± 0.083
923 K, x2 = 0.6 | 8098 ± 490 | 390.7 ± 23 | 1.211 ± 0.08
923 K, x2 = 0.9 | 6938 ± 420 | 372.6 ± 22 | 1.357 ± 0.089
973 K, x2 = 0.9 | 6892 ± 410 | 368.6 ± 22 | 1.212 ± 0.08
1023 K, x2 = 0.9 | 6856 ± 410 | 364.4 ± 22 | 1.118 ± 0.074
